Laboratory results taken from article PMC10146949, “Cytotoxicity Profiles and Neuroprotective Properties of the Novel Ifenprodil Analogues as Sigma Ligands” (Molecules, 2023).
Values after ≈ are worked out from the molar mass of the structure shown. Read-outs that look alike come from different tables or passages of the source.

Assays:
S1R [1] = target: T1, S1R (Cavia porcellus, UniProt Q60492); assay: S1R radioligand binding assay, [3H](+)-pentazocine, guinea pig brain cortex homogenates; details: for S2R/S1R selectivity ratio: ratio of Ki S2R to Ki S1R
T1 construct: Fresh guinea pig brain cortex was homogenized in ice-cold Tris (50 mM, pH 7.4); tissue ENVIGO RMS S.R.L., Udine, Italy (animals); host or cells: male Dunkin-Hartley guinea pig brain cortex membranes
T1 sequence (Q60492 whole entry): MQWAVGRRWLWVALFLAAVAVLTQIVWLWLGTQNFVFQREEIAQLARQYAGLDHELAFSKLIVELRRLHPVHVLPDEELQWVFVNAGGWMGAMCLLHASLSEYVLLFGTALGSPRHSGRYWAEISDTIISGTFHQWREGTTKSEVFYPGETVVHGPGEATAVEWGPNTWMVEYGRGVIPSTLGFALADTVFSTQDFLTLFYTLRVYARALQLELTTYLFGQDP
Description: The bound radioactivity has been determined using a Beckman LS 6500 liquid scintillation counter (Beckman Coulter, Brea, CA, USA).
The test compound solutions were prepared by dissolving approximately 10 µmol of the test compound in DMSO to obtain a 10 mM stock solution.
Fresh guinea pig brain cortex was homogenized in ice-cold Tris (50 mM, pH 7.4) containing cold 0.32 M sucrose with a Potter-Elvehjem glass homogenizer. […] The final pellet was resuspended in ice-cold Tris buffer, and frozen at −80 °C. The protein concentration was determined by the method of Bradford [42].
Bound and free radioligand were separated by fast filtration under reduced pressure using a Millipore filter apparatus through Whatman GF 6 glass fiber filters, which were presoaked in a 0.5% poly(ethyleneimine) water solution for 120 min. Each filter paper was rinsed three times with 3 mL of ice-cold Tris buffer (50 mM, pH 7.4), dried at room temperature, and incubated overnight with 3 mL of Ultima Gold MV Scintillation cocktail into pony vials.
The Ki-values were calculated with the program GraphPad Prism® 6.0 (GraphPad Software, San Diego, CA, USA). The Ki-values are given as the mean value ± SD from at least two independent experiments performed in duplicate.

S2R [2] = target: T2, S2R (Rattus norvegicus, UniProt Q5U3Y7); assay: S2R radioligand binding assay, [3H]DTG, rat liver membranes
T2 construct: A few rat livers were homogenized in cold 0.32 M sucrose with a Potter-Elvehjem glass homogenizer; tissue ENVIGO RMS S.R.L., Udine, Italy (animals); host or cells: Sprague Dawley rat liver membranes
T2 sequence (Q5U3Y7 1-176): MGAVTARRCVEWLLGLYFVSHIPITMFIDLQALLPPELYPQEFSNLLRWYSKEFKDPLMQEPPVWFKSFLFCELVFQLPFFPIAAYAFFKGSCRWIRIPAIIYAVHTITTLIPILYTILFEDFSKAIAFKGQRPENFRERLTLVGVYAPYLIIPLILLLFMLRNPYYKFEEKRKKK

ABTS radical scavenging = details: ABTS 7 mM ethanolic, 45 min, 735 nm
Description: The compounds’ antioxidant capacity was evaluated by bleaching the green colored ethanolic solution of ABTS [41]. Test compounds (300 μL) were diluted as follows: 0.01, 0.025, 0.05, 0.1, and 0.2 mg/mL and added to 2.7 mL of ethanolic solution of ABTS (7 mM). These mixtures were incubated for 45 min at room temperature, and the absorbances were recorded at λ = 735 nm against the ABTS solution. The results were obtained as the percent of inhibition (% IC) of ABTS radical, calculated by the following formula. % IC = [(Abs ABTS − Abs Sample)/Abs ABTS] × 100
Data were expressed as mean value ± SD, and the assay was performed in triplicate.
The % IC was used to determine the IC50 values.

[3] = Cytotoxicity, resazurin cell viability test; format: cell-based, human; details: human
Description: (§1) Cell viability was tested by using Resazurin (SERVA Electrophoresis GmbH, Heidelberg, Germany), which in metabolically active cells is reduced to Resufurin, a redox indicator, whose fluorescence is proportional to the number of live cells [43, 44].
(§2) The percentage of viability was calculated after subtraction of the background (obtained by killing the cells), on the basis of the ratio between the fluorescence values of the cells incubated with a compound and the fluorescence values of cells incubated with the solvent (1% DMSO). The viability of cells incubated with 1% DMSO was considered to be equivalent to 100%.
(§3) The statistical analysis was carried out with GraphPad Prism® 6.0 (GraphPad Software, Inc, La Jolla, CA, USA) software using an unpaired t-test. p < 0.05 was considered statistically significant. Cytotoxicity concentrations (IC50s) were determined from dose-response curves analyzed by using GraphPad Prism software.

[4] = tested on: NRF2 gene expression in SH-SY5Y cells; assay: Real-Time PCR of NRF2 mRNA levels; details: 12.5 µM, 12 h; for effect on NRF2 expression (in words): vs DMSO
Description: (§4) Total RNA (500 ng) was primed with hexameric random primers and retrotranscribed into cDNA with M-MLV reverse transcriptase (Thermo Fisher Scientific, Waltham, MA, USA). The normalization of targets’ gene expression was performed against the housekeeping gene RPL13A. Real-Time PCRs were performed by using iQ SYBR Green Supermix and CFX96 Real-Time PCR detection system (Bio-Rad Laboratories, Redmond, WA, USA). The relative expression levels were calculated using the 2^−∆∆CT method. An unpaired T-test was used to determine statistical significance. Values are presented as mean and error bars indicate standard errors (SE). The results are representative of two independent experiments in triplicate.

[5] = tested on: SOD1 gene expression in SH-SY5Y cells; assay: Real-Time PCR of SOD1 mRNA levels; details: 12.5 µM, 12 h; for effect on SOD1 expression (in words): vs DMSO
Description: as §4

[6] = Hydrogen peroxide scavenging; details: H2O2 2 mM, 230 nm
S1R [7] = details: cited from earlier work
S1R [8] = assay: S1R affinity taken from the literature; format: binding; details: ifenprodil, from literature Ki values
Text: Table 2 Binding affinities towards S1R and S2R, for compounds 5a–o.

S2R [9] = target: S2R; set-up: method as in PMID 31319263; details: ifenprodil, Table 2 footnote b; cited from earlier work
SH-SY5Y cells = assay: Cytotoxicity, resazurin cell viability test; format: cell-based, human
Description: as §1, §2, §3

Structure (SMILES)	Ki (S1R [1])	S2R/S1R selectivity ratio (S1R [1])	Ki (S2R [2]; read-out: Ki S2R)	Ki (S1R [1]; read-out: Ki S1R)	IC50 H2O2 [6]	other results
CC(C(=O)c1ccccc1)N1CCCN(Cc2ccccc2)CC1 (stereo not drawn) [5a, 2-(4-Benzyl-1,4-diazepan-1-yl)-1-phenylpropan-1-one]	69 ± 14 nM	1.6	108 ± 21 nM	–	–	–
CC(C(=O)c1ccccc1)N1CCN(c2ccccc2)CC1 (stereo not drawn) [5b, 2-(4-Phenylpiperazin-1-yl)-1-phenylpropan-1-one]	–	0.05	158 ± 30 nM	2930 ± 1150 nM	–	melting point: 105 to 106 °C
CC(C(=O)c1ccccc1)N(C)CCCCc1ccccc1 (stereo not drawn) [5c, 2-(Methyl(4-phenylbutyl)amino)-1-phenylpropan-1-one]	–	0.15	733 ± 106 nM	4720 ± 1690 nM	–	–
CC(C(=O)c1ccccc1)N1CCN(Cc2ccccc2)CC1 (stereo not drawn) [5d, 2-(4-Benzylpiperazin-1-yl)-1-phenylpropan-1-one]	8 ± 1 nM	38	302 ± 65 nM	–	14.56 ± 0.18 µg/mL (≈ 47.2 µM)	IC50 ABTS (ABTS radical scavenging): 2.854 ± 0.11 µg/mL (≈ 9.25 µM); IC50 ([3]; SH-SY5Y cells): 118000 nM; NRF2 mRNA levels, fold increase compared to DMSO [4]: 1.7 fold; SOD1 mRNA levels, fold increase compared to DMSO [5]: 1.3 fold
COc1ccc(C(=O)C(C)N2CCCN(Cc3ccccc3)CC2)cc1 (stereo not drawn) [5e, 2-(4-Benzyl-1,4-diazepan-1-yl)-1-(4-methoxyphenyl)propan-1-one]	12 ± 2 nM	8.1	–	–	12.65 ± 0.21 µg/mL (≈ 35.9 µM)	IC50 ABTS (ABTS radical scavenging): 2.495 ± 0.09 µg/mL (≈ 7.08 µM); IC50 ([3]; SH-SY5Y cells): 74000 nM; Ki (S2R [2]): 97 ± 17 nM; effect on NRF2 expression (in words) [4]: did not change its expression significantly; effect on SOD1 expression (in words) [5]: did not significantly alter
COc1ccc(C(=O)C(C)N2CCN(c3ccccc3)CC2)cc1 (stereo not drawn) [5f, 2-(4-Phenylpiperazin-1-yl)-1-(4-methoxyphenyl)propan-1-one]	–	0.53	989 ± 337 nM	1860 ± 987 nM	–	melting point: 117 to 119 °C
COc1ccc(C(=O)C(C)N(C)CCCCc2ccccc2)cc1 (stereo not drawn) [5g, 1-(4-Methoxyphenyl)-2-(methyl(4-phenylbutyl)amino)propan-1-one]	–	3.3	386 ± 110 nM	117 ± 18 nM	–	–
COc1ccc(C(=O)C(C)N2CCN(Cc3ccccc3)CC2)cc1 (stereo not drawn) [5h, 2-(4-Benzylpiperazin-1-yl)-1-(4-methoxyphenyl)propan-1-one]	1.4 ± 0.2 nM	–	–	–	466.24 ± 1.36 µg/mL (≈ 1380 µM)	IC50 ([3]; SH-SY5Y cells): 117000 nM; Ki (S2R [2]): 84 ± 31 nM; effect on NRF2 expression (in words) [4]: significant decrease; effect on SOD1 expression (in words) [5]: dramatically reduced
CC(C(=O)c1ccc(O)cc1)N1CCCN(Cc2ccccc2)CC1 (stereo not drawn) [5i, 2-(4-Benzyl-1,4-diazepan-1-yl)-1-(4-hydroxyphenyl)propan-1-one]	19 ± 3 nM	1.1	–	–	13.11 ± 0.24 µg/mL (≈ 38.7 µM)	IC50 ABTS (ABTS radical scavenging): 2.603 ± 0.09 µg/mL (≈ 7.69 µM); IC50 ([3]; SH-SY5Y cells): 294000 nM; Ki (S2R [2]): 22 ± 4 nM; NRF2 mRNA levels, fold increase compared to DMSO [4]: 2.8 fold; effect on SOD1 expression (in words) [5]: did not significantly alter
CC(C(=O)c1ccc(O)cc1)N(C)CCCCc1ccccc1 (stereo not drawn) [5j, 1-(4-Hydroxyphenyl)-2-(methyl(4-phenylbutyl)amino)propan-1-one]	–	0.38	–	121 ± 22 nM	–	Ki (S2R [2]): 45 ± 4 nM
CC(C(=O)c1ccc(O)cc1)N1CCN(Cc2ccccc2)CC1 (stereo not drawn) [5k, 2-(4-Benzylpiperazin-1-yl)-1-(4-hydroxyphenyl)propan-1-one]	19 ± 2 nM	6.8	129 ± 23 nM	–	436.43 ± 1.17 µg/mL (≈ 1350 µM)	IC50 ([3]; SH-SY5Y cells): 132000 nM; effect on NRF2 expression (in words) [4]: significant decrease; effect on SOD1 expression (in words) [5]: dramatically reduced; melting point: 58 to 59 °C
CC(C(=O)c1ccc(O)cc1)N1CCN(c2ccccc2)CC1 (stereo not drawn) [5l, 2-(4-Phenylpiperazin-1-yl)-1-(4-hydroxyphenyl)propan-1-one]	–	0.18	147 ± 17 nM	785 ± 226 nM	–	melting point: 163 to 165 °C
CC(C(O)c1ccccc1)N(C)CCCCc1ccccc1 (stereo not drawn) [5m, 2-(Methyl(4-phenylbutyl)amino)-1-phenylpropan-1-ol]	37 ± 10 nM	0.81	–	–	–	Ki (S2R [2]): 30 ± 8 nM
COc1ccc(C(O)C(C)N(C)CCCCc2ccccc2)cc1 (stereo not drawn) [5n, 1-(4-Methoxyphenyl)-2-(methyl(4-phenylbutyl)amino)propan-1-ol]	38 ± 9 nM	13	479 ± 93 nM	–	–	–
COc1ccc(C(O)C(C)N2CCCN(Cc3ccccc3)CC2)cc1 (stereo not drawn) [5o, 2-(4-Benzyl-1,4-diazepan-1-yl)-1-(4-methoxyphenyl)propan-1-ol]	–	32	128 ± 26 nM	4.2 ± 0.6 nM	12.13 ± 0.25 µg/mL (≈ 34.2 µM)	IC50 ABTS (ABTS radical scavenging): 2.481 ± 0.05 µg/mL (≈ 7 µM); IC50 ([3]; SH-SY5Y neuroblastoma cells): 118000 nM; effect on NRF2 expression (in words) [4]: significant decrease; effect on SOD1 expression (in words) [5]: dramatically reduced
COc1cc2c(cc1OC)C(=O)C(CC1CCN(Cc3ccccc3)CC1)C2 (stereo not drawn) [Donepezil]	–	–	–	–	–	Ki (S1R [7]; donepezil): 14.6 nM
O=C(CCCN1CCC(O)(c2ccc(Cl)cc2)CC1)c1ccc(F)cc1 [Haloperidol, reference compound]	–	–	–	–	–	IC50 ([3]; SH-SY5Y neuroblastoma cells): 23000 nM; effect on NRF2 expression (in words) [4]: did not cause significant changes; effect on SOD1 expression (in words) [5]: did not cause significant changes
CC(C(O)c1ccc(O)cc1)N1CCC(Cc2ccccc2)CC1 (stereo not drawn) [Ifenprodil]	–	–	–	–	–	S2R/S1R selectivity ratio (S1R [8]): 0.75; Ki (S1R [7]; ifenprodil, Table 2 footnote b): 125 ± 24 nM; Ki (S2R [9]): 98 ± 34 nM
CCCN(CCC)CCc1ccc(OC)c(OCCc2ccccc2)c1 [NE100, reference compound]	–	–	–	–	–	IC50 (SH-SY5Y cells): 49000 nM
Fc1ccc(-n2cc(CCCCN3CCC4(CC3)OCc3ccccc34)c3ccccc32)cc1 [Siramesine, reference compound]	–	–	–	–	–	IC50 ([3]; SH-SY5Y neuroblastoma cells): 2000 nM
Cc1c(C)c2c(c(C)c1O)CCC(C)(C(=O)O)O2 (stereo not drawn) [Trolox, 6-hydroxy-2,5,7,8-tetramethylchroman-2-carboxylic acid, reference compound]	–	–	–	–	15.69 ± 0.69 µg/mL (≈ 62.7 µM)	IC50 ABTS (ABTS radical scavenging): 2.365 ± 0.19 µg/mL (≈ 9.45 µM)
